Data set [1] relates to BMPR2^R899X mice. Put plainly: Glutamine synthetase in liver mitochondria and circulating glutamine in treated BMPR2^R899X mice. Type of data set: in vivo. The procedure: (§1) To assess mitochondrial respiration in cultured PMVECs, cells were seeded in growth media in a 96-well plate from Seahorse Biosciences (Bilerica, MA) at a seeding density of 50,000 live cells per well. The following day, cells were washed and placed in Seahorse Assay Media supplemented with specific substrates (1 gm/L glucose, 2 mM L-glutamine). After equilibration, oxygen consumption rates were measured on a Seahorse XFe96 analyzer using the Mito Stress Test protocol. For mitochondrial protein measurements, mitochondria were isolated from fresh murine liver tissue as previously described.^24
(§2) All animal studies were approved by the Vanderbilt IACUC. Male and female FVB/N mice were 10-16 weeks of age. BMPR2^R899X mice were generated and maintained as previously described.^24,25 For 2HOBA studies, 1 gm/L was administered in the drinking water, with water bottles protected from light and water changes every 2-3 days.
(§3) Having shown that impaired BMPR2 function is associated with loss of SIRT3 function, and that this can be prevented with 2HOBA treatment to scavenge damaging lipid peroxidation products, the present inventors next wished to assess the in vivo metabolic dysfunction downstream from BMPR2 mutation, the relationship to PAH, and the effect of 2HOBA treatment. […]

For data set [2] the following is noted: pre-clinical animal studies; cited from earlier work.
Data set [3] is described as follows: Long-term safety, continuous dosing in mice. The data set is classed as in vivo. The settings on record: over 12 months of continuous dosing in mice.
For a further data set, the system named is SIRT3. Put plainly: Lysine acetylation and SIRT3 content of the mitochondrial proteome from treated BMPR2^R899X mice (Western blot). To be noted: 1 g/L 2HOBA in drinking water. Type of data set: in vivo. Here is the method:
as §1, §2
Because sirtuin expression and activity is tightly regulated by substrate availability, nutrient intake, physical activity, and interacting signaling pathways operating between organ systems, the role of SIRT3 in BMPR2-mediated PAH is best studied in a murine model system. […] The mitochondrial proteome was assessed for acetylation of lysine residues, with SIRT3 inactivation leading to lysine hyperacetylation. […]
For orientation: In western blotting, separated proteins are transferred to a membrane and probed.

Data set [4] concerns BMPR2^R899X mice. Description: Development of PAH in BMPR2^R899X mice (total pulmonary resistance, cardiac output by echocardiography, invasive RVSP). Type of data set: in vivo. Here is the method:
as §2
Echocardiography was performed on anesthetized mice (isoflurane anesthesia) to determine cardiac output. Right ventricular systolic pressure (RVSP) was invasively measured as described, using bromoethanol as the anesthetic.^24,25
All statistics were performed using GraphPad Prism 6.0 or Microsoft Excel unless otherwise specified. For animal experiments, sample sizes were chosen based upon previous experiments with approximately 80% of transgenic animals showing RVSP>30 mm Hg. Animals were randomly assigned to treatment groups by cage. For all measurements, investigators were blind to treatments and genotype until data analysis. Data were analyzed using two-tailed t-test, or two-way ANOVA with Tukey's post-test, as indicated. Significance was set at α<0.05 after correction for multiple comparisons.
Having shown that impaired BMPR2 function is associated with loss of SIRT3 function, and that this can be prevented with 2HOBA treatment to scavenge damaging lipid peroxidation products, the present inventors next wished to assess the in vivo metabolic dysfunction downstream from BMPR2 mutation, the relationship to PAH, and the effect of 2HOBA treatment. The present inventors hypothesized that 2HOBA would prevent the development of PAH in BMPR2^R899X mice and would have a beneficial modulatory effect on glutamine metabolism in vivo. Expression of the BMPR2^R899X allele was sufficient to drive upregulation of glutamine synthetase in skeletal muscle (FIG. 10) and in liver mitochondria (FIG. 7A) compared to WT.

A further data set relates to WT mice. Description: Glutamine synthetase in liver mitochondria of treated WT mice. The data set is classed as in vivo. The settings on record: 2HOBA treatment. The procedure: as §1, §2, §3
The next data set has as its system WT PMVEC. Put plainly: Extracellular glutamine to glucose flux ratio in WT PMVEC. The settings on record: low-dose chetomin. Type of data set: cell-based. The procedure:
(§4) The present inventors used previously characterized WT and BMPR2 mutant (BMPR2^R899X) pulmonary microvascular endothelial cells isolated from conditionally immortalized murine lines generated on the ImmortoMouse background,^20 and WT and BMPR2 mutant PMVECs from a parent immortalized human line stably expressing either a WT or BMPR2 mutant construct transfected into the parent line and maintained under selection with G418S. […]
(§5) Glucose and lactate levels were measured using the YSI 2300 Stat Glucose and Lactate Analyzer (Yellow Springs, OH). High performance liquid chromatography (HPLC) was used to quantify amino acid concentrations, with norvaline as an internal standard. […] Flux rates were calculated using the ETA software package.^22
(§6) The present inventors next wished to determine the molecular events downstream from BMPR2 mutation that contribute to glutamine reliance. […] Then WT and BMPR2 mutant PMVEC was treated with chetomin, a pharmacologic inhibitor of HIF, and assessed glucose and glutamine uptake by quantifying the extracellular flux ratio of glutamine to glucose. […]

The subject of another data set is BMPR2 mutant PMVEC. Put plainly: Extracellular glutamine to glucose flux ratio in BMPR2 mutant PMVEC. The data set is classed as cell-based. To be noted: low-dose chetomin. Here is the method:
as §4, §5, §6

Where [5] appears, read: 2HOBA vs vehicle-treated mutants.

Entries after “also recorded” stand apart in the source; their conditions may differ.

Data on 2 compounds can be found in patent publication US20250381155A1, “USE OF 2-HYDROXYBENZYLAMINE IN THE TREATMENT AND PREVENTION OF PULMONARY HYPERTENSION” (Vanderbilt University, priority 2016, published 2025).

For the compound `NCc1ccccc1O` [2HOBA, 2-hydroxybenzylamine], the “circulating (plasma) glutamine” value with BMPR2^R899X mice [1] (2HOBA-treated BMPR2^R899X mice compared to 2HOBA-treated WT mice) was “significantly lower; also recorded: significantly reduces”. For the same compound, in the data set on BMPR2^R899X mice [1] (BMPR2^R899X mice, 2HOBA treatment), the “glutamine synthetase in liver mitochondria” value is “reduced”. Besides, the safety profile entry in data set [2] is on record as “excellent safety profile”. In addition, the toxicity entry in data set [3] was “no significant toxicity”. In the data set with SIRT3, the “total SIRT3 content in the mitochondria” value is recorded as “without affecting”. Further, the “lysine acetylation in the mitochondrial proteome” value in the data set on SIRT3 (Western diet, isolated mitochondria) is reported as “significantly reduced; also recorded: normalized”. The “development of pulmonary hypertension as measured by total pulmonary resistance” value with BMPR2^R899X mice [4] (2HOBA compared to vehicle-treated mice) is listed as “prevented the development of pulmonary hypertension; also recorded: to a level statistically indistinguishable from WT”. Further, in the data set on BMPR2^R899X mice [4] (setting [5]), the cardiac output entry is listed as “modestly increased; also recorded: trends toward improved” and the “right ventricular systolic pressure (RVSP)” value is “decreased; also recorded: trends toward a decrease”. Further, the “glutamine synthetase in liver mitochondrial fraction” value with WT mice was “not substantially”.
With `CN1C(=O)[C@]2(Cc3cn([C@]45C[C@@]67SS[C@@](CO)(C(=O)N6[C@H]4Nc4ccccc45)N(C)C7=O)c4ccccc34)SS[C@@]1(CO)C(=O)N2C` [chetomin], the “glutamine to glucose flux ratio” value in the data set on WT PMVEC is “no effect; also recorded: essentially unaffected”; in the data set on BMPR2 mutant PMVEC it was “significantly reduced”.
